Test results taken from the NIST ThermoML archive (doi:10.1021/je060411g).

Test: molar heat capacity at constant pressure
Details: 101.33 kPa, Liquid

CC(C)C(C)O (stereo unspecified) [3-methyl-2-butanol]
Details | molar heat capacity at constant pressure [J/K/mol]
176.36 K | 147.39
176.67 K | 146.37
178.34 K | 147.47
178.66 K | 147.29
180.33 K | 147.95
180.64 K | 148.09
182.33 K | 148.74
182.63 K | 149.07
184.32 K | 149.21
184.61 K | 149.6
186.31 K | 149.62
186.6 K | 150.32
188.3 K | 149.99
188.59 K | 150.72
190.3 K | 150.82
190.58 K | 151.56
192.29 K | 151.37
192.57 K | 152.24
194.28 K | 152
194.56 K | 152.93
196.27 K | 152.73
196.55 K | 153.74
198.26 K | 153.78
198.54 K | 154.39
200.25 K | 154.7
200.53 K | 155.32
202.24 K | 155.43
202.51 K | 156.2
204.23 K | 156.17
204.5 K | 157.11
206.21 K | 156.91
206.48 K | 158.08
208.2 K | 157.81
208.47 K | 159.14
210.18 K | 158.87
210.46 K | 160.17
212.17 K | 159.83
214.15 K | 160.86
216.12 K | 161.85
218.08 K | 163.18
220.04 K | 164.39
221.99 K | 165.9
223.93 K | 167.49
225.86 K | 168.89
227.79 K | 170.77
229.71 K | 172.05
231.62 K | 173.69
233.53 K | 175.59
235.43 K | 177.3
237.32 K | 178.86
239.2 K | 180.5
241.08 K | 182.29
242.96 K | 184.02
244.82 K | 185.3
246.68 K | 187.07
248.53 K | 188.6
250.37 K | 190.8
252.21 K | 192.67
254.03 K | 194.25
255.85 K | 196.29
257.67 K | 198.36
259.47 K | 200.36
261.27 K | 202.49
263.06 K | 204.59
264.84 K | 206.44
266.62 K | 208.79
268.39 K | 210.85
270.15 K | 212.97
271.91 K | 215.09
273.66 K | 217.48
275.41 K | 219.86
277.14 K | 222.01
278.87 K | 224.26
280.6 K | 226.68
282.31 K | 228.97
284.02 K | 230.98
285.72 K | 233.15
287.42 K | 234.9
289.11 K | 237.64
290.79 K | 239.38
292.47 K | 241.39
294.15 K | 243.38
295.81 K | 245.77
297.47 K | 247.45
299.13 K | 249.65
300.78 K | 250.94
